The values below come from US20060270880A1, “7-Azaindole derivatives as cox2 inhibitors” (priority 2003, published 2006).

A value given as a limit tells only on which side of the number the result lay.

This experiment deals with T1, microsomal h-COX2 (Homo sapiens, UniProt P35354).
T1 construct: made in house; host or cells: baculovirus infected SF9 cells (microsomal preparation)
T1 sequence (P35354 18-604): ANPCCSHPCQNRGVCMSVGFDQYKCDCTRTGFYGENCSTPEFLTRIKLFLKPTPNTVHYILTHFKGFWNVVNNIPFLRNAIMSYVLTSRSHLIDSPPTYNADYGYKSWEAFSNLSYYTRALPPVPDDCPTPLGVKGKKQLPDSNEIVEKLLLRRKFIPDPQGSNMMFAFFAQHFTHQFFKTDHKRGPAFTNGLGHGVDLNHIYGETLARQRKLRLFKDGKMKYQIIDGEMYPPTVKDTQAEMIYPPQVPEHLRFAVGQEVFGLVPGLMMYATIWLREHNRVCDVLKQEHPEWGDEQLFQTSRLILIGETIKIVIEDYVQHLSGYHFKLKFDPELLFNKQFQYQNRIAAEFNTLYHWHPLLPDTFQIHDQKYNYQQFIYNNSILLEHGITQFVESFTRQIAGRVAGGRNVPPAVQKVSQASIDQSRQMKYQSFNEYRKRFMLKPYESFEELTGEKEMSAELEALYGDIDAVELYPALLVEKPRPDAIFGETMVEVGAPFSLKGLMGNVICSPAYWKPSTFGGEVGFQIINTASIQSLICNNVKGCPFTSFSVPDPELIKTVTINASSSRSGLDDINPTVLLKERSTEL
In words: Microsomal assay: inhibition of microsomal h-COX2 (PGE2 by EIA). It is filed as biochemical. As to conditions: microsomal preparation from baculovirus infected SF9 cells; 1 hour preincubation; 0.1 μM arachidonic acid, 10 minutes; read-out: IC50 values for inhibition of COX-2. Here is the method:
Inhibitory activity against microsomal h-COX2 was assessed against a microsomal preparation from baculovirus infected SF9 cells. An aliquot of microsomal preparation was thawed slowly on ice and a 1/40,000 dilution prepared from it into the assay buffer (sterile water, degassed with argon containing 100 mM HEPES (pH 7.4), 10 mM EDTA (pH7.4), 1 mM phenol, 1 mM reduced glutathione, 20 mg/ml gelatin and 0.001 mM Hematin). Once diluted the enzyme solution was then sonicated for 5 seconds (Branson sonicator, setting 4, 1 cm tip) to ensure a homogeneous suspension. 155 μl enzyme solution was then added to each well of a 96-well microtitre plate containing either 5 μl test und (40× required test concentration) or 5 μl DMSO for controls. Plates were then mixed and incubated at room temperature for 1 hour. Following the incubation period, 40 μl of 0.5 μM arachidonic acid was added to each well to give a final concentration of 0.1 μM. Plates were then mixed and incubated for exactly 10 minutes (room temperature) prior to addition of 25 μl 1M HCl (hydrochloric acid) to each well to stop the reaction. 25 μl of 1M NaOH (sodium hydroxide) was then added to each well to neutralise the solution prior to determination of PGE2 levels by enzyme immunoassay (EIA).
As a reminder, the IC50 is the concentration that gives 50% inhibition. As to `CS(=O)(=O)c1ccc(-c2ccc3ccn(CC4CCCCC4)c3n2)cc1` [Example 1, 1-(cyclohexanemethyl)-6-[4-(methylsulfonyl)phenyl]-7-azaindole], the IC50 is not above 500 nM.

Regarding `CS(=O)(=O)c1ccc(-c2ccc3ccn(-c4ccccc4)c3n2)cc1` [Example 2, 1-Phenyl-6-[4-(methylsulfonyl)phenyl]-7-azaindole], the concentration for half-maximal inhibition (IC50) was not above 500 nM.

On to `CC(C)Cc1cn(CC2CCCCC2)c2nc(-c3ccc(S(C)(=O)=O)cc3)ccc12` [Example 3, 1-(cyclohexanemethyl)-3-(2-methylprop-1-yl)-6-[4-(methylsulfonyl)phenyl]-7-azaindole], for which the IC50 was not above 500 nM.

For the compound `CS(=O)(=O)c1ccc(-c2ccc3c(C=O)cn(CC4CCCCC4)c3n2)cc1` [Example 4, 1-(cyclohexanemethyl)-6-[4-(methylsulfonyl)phenyl]-7-azaindole-3-carboxaldehyde], the IC50 is not above 500 nM.

Consider `Cc1cn(CC2CCCCC2)c2nc(-c3ccc(S(C)(=O)=O)cc3)ccc12` [Example 6, 1-{cyclohexanemethyl)-3-methyl-6-[4-(methylsulfonyl)phenyl]-7-azaindole], for which the half-inhibitory concentration (IC50) was not above 500 nM.

Regarding `CS(=O)(=O)c1ccc(-c2ccc3ccn(S(=O)(=O)c4ccccc4)c3n2)cc1` [Example 9], the half-maximal inhibitory concentration (IC50) was not above 500 nM.

In the case of `CCC(CC)Cn1ccc2ccc(-c3ccc(S(C)(=O)=O)cc3)nc21` [Example 10], the half-inhibitory concentration (IC50) is not above 500 nM.

With `CS(=O)(=O)c1ccc(-c2ccc3ccn(Cc4ccccc4)c3n2)cc1` [Example 12], the IC50 is not above 500 nM.

Regarding `CS(=O)(=O)c1ccc(-c2ccc3ccn(-c4ccc(F)cc4)c3n2)cc1` [Example 13], the concentration for half-maximal inhibition (IC50) is not above 500 nM.

For `CS(=O)(=O)c1ccc(-c2ccc3ccn(Cc4cccnc4)c3n2)cc1` [Example 14], the IC50 was not above 500 nM.

For the compound `CS(=O)(=O)c1ccc(-c2ccc3ccn(Cc4ccncc4)c3n2)cc1` [Example 15], the concentration for half-maximal inhibition (IC50) is not above 500 nM.

For `CS(=O)(=O)c1ccc(-c2ccc3ccn(Cc4ccccn4)c3n2)cc1` [Example 16], the IC50 is not above 500 nM.

Consider `CS(=O)(=O)c1ccc(-c2ccc3ccn(Cc4ccc(Cl)cc4)c3n2)cc1` [Example 18], for which the IC50 is not above 500 nM.
